Patent publication US11919897B2, “Inhibitors of human immunodeficiency virus replication” (VIIV HEALTHCARE UK (No. 5) LIMITED, priority 2018, dated 2024)
Where two headings read alike, the source gives them in different places.

Columns and labels:
Assay type in all cases: cell-based
[1] = Compound cytotoxicity, XTT-based colorimetric assay; details: human; uninfected MT2 cells, day 4, XTT assay
Method: (§1) Compound cytotoxicity and the corresponding CC50 values were determined using the same protocol as described in the antiviral assay except that uninfected cells were used. Cytotoxicity was assessed on day 4 in uninfected MT2 cells by using an XTT (2,3-bis[2-Methoxy-4-nitro-5-sulfophenyl]-2H-tetrazolium-5-carboxyanilide inner salt)-based colorimetric assay (Sigma-Aldrich, St Louis, Mo.).

[2] = system: recombinant NL4-3 virus (nef section replaced with Renilla luciferase gene) in MT-2 cells; test: HIV cell culture assay (antiviral activity, luciferase readout in infected MT-2 cells)
Method: HIV cell culture assay-MT-2 cells, 293T cells and the proviral DNA clone of NL4-3 virus were obtained from the NIH AIDS Research and Reference Reagent Program. MT-2 cells were propagated in RPMI 1640 media supplemented with 10% heat inactivated fetal bovine serum (FBS), 100 μg/ml penicillin G and up to 100 units/mL streptomycin. The 293T cells were propagated in DMEM media supplemented with 10% heat inactivated FBS, 100 μg/mL penicillin G and 100 μg/mL streptomycin. A recombinant NL4-3 proviral clone, in which a section of the nef gene was replaced with the Renilla luciferase gene, was used to make the reference virus used in these studies. The recombinant virus was prepared through transfection of the recombinant NL4-3 proviral clone into 293T cells using Transit-293 Transfection Reagent from Minis Bio LLC (Madison, WI). Supernatent was harvested after 2-3 days and the amount of virus present was titered in MT-2 cells using luciferase enzyme activity as a marker by measuring luciferase enzyme activity. Luciferase was quantitated using the EnduRen Live Cell Substrate from Promega (Madison, WI). Antiviral activities of compounds toward the recombinant virus were quantified by measuring luciferase activity in MT-2 cells infected for 4-5 days with the recombinant virus in the presence of serial dilutions of the compound.
The 50% effective concentration (EC50) was calculated by using the exponential form of the median effect equation where (Fa)=1/[1+(ED50/drug conc.)m] (Johnson V A, Byington R T. Infectivity Assay. In Techniques in HIV Research. ed. Aldovini A, Walker B D. 71-76. New York: Stockton Press. 1990).

uninfected MT2 cells = test: Compound cytotoxicity, XTT-based colorimetric assay; details: day 4, XTT assay
Method: as §1

[3] = MT-2 cells infected for 4-5 days with recombinant NL4-3 Renilla luciferase virus, luciferase activity, read-out: EC50

Compound | CC50 at 4 days [1] [nM] | EC50 ([2]; Renilla, NL43) [nM] | CC50 (uninfected MT2 cells) [nM] | EC50 [2, 3] [nM]
CCCCOCCOc1ccc2c(=O)n(-c3ccc(Cl)c4c(NS(C)(=O)=O)nn(C)c34)c([C@H](Cc3cc(F)cc(F)c3)NC(=O)Cn3nc(C(F)F)c4c3C(F)(F)[C@@H]3C[C@H]43)nc2n1 (atropisomer, axis not shown; (P)) [Example 27, N—((S)-1-(7-(2-butoxyethoxy)-(3P)-3-(4-chloro-1-methyl-3-(methylsulfonamido)-1H-indazol-7-yl)-4-oxo-3,4-dihydropyrido[2,3-d]pyrimidin-2-yl)-2-(3,5-difluorophenyl)ethyl)-2-((3bS,4aR)-3-(difluoromethyl)-5,5-difluoro-3b,4,4a,5-tetrahydro-1H-cyclopropa[3,4]cyclopenta[1,2-c]pyrazol-1-yl)acetamide] | > 100 | 0.041 |  | 
Cn1nc(NS(C)(=O)=O)c2c(Cl)ccc(-n3c([C@H](Cc4cc(F)cc(F)c4)NC(=O)Cn4nc(C(F)F)c5c4C(F)(F)[C@@H]4C[C@H]54)nc4nc(OCCOC5CC5)ccc4c3=O)c21 (atropisomer, axis not shown; (P)) [Example 29, N—((S)-1-((3P)-3-(4-chloro-1-methyl-3-(methylsulfonamido)-1H-indazol-7-yl)-7-(2-cyclopropoxyethoxy)-4-oxo-3,4-dihydropyrido[2,3-d]pyrimidin-2-yl)-2-(3,5-difluorophenyl)ethyl)-2-((3bS,4aR)-3-(difluoromethyl)-5,5-difluoro-3b,4,4a,5-tetrahydro-1H-cyclopropa[3,4]cyclopenta[1,2-c]pyrazol-1-yl)acetamide] | > 100 | 0.034 |  | 
Cn1nc(NS(C)(=O)=O)c2c(Cl)ccc(-n3c([C@H](Cc4cc(F)cc(F)c4)NC(=O)Cn4nc(C(F)F)c5c4C(F)(F)[C@@H]4C[C@H]54)nc4nc(OCc5ccccn5)ccc4c3=O)c21 (atropisomer, axis not shown; (P)) [Example 30, N—((S)-1-((3P)-3-(4-chloro-1-methyl-3-(methylsulfonamido)-1H-indazol-7-yl)-4-oxo-7-(pyridin-2-ylmethoxy)-3,4-dihydropyrido[2,3-d]pyrimidin-2-yl)-2-(3,5-difluorophenyl)ethyl)-2-((3bS,4aR)-3-(difluoromethyl)-5,5-difluoro-3b,4,4a,5-tetrahydro-1H-cyclopropa[3,4]cyclopenta[1,2-c]pyrazol-1-yl)acetamide] | > 100 | 0.043 |  | 
CO[C@H](C)COc1ccc2c(=O)n(-c3ccc(Cl)c4c(NS(C)(=O)=O)nn(C)c34)c([C@H](Cc3cc(F)cc(F)c3)NC(=O)Cn3nc(C(F)F)c4c3C(F)(F)[C@@H]3C[C@H]43)nc2n1 [Example 31, N—((S)-1-((3P)-3-(4-chloro-1-methyl-3-(methylsulfonamido)-1H-indazol-7-yl)-7-((R)-2-methoxypropoxy)-4-oxo-3,4-dihydropyrido[2,3-d]pyrimidin-2-yl)-2-(3,5-difluorophenyl)ethyl)-2-((3bS,4aR)-3-(difluoromethyl)-5,5-difluoro-3b,4,4a,5-tetrahydro-1H-cyclopropa[3,4]cyclopenta[1,2-c]pyrazol-1-yl)acetamide] | > 100 | 0.019 |  | 
N—((S)-1-((3P)-3-(4-chloro-1-(2,2-difluoroethyl)-3-(methylsulfonamido)-1H-indazol-7-yl)-7-(2-cyclopropylethoxy)-4-oxo-3,4-dihydropyrido[2,3-d]pyrimidin-2-yl)-2-(3,5-difluorophenyl)ethyl)-2-((3bS,4aR)-3-(difluoromethyl)-5,5-difluoro-3b,4,4a,5-tetrahydro-1H-cyclopropa[3,4]cyclopenta[1,2-c]pyrazol-1-yl)acetamide [Example 22] |  |  | > 500 | 0.29
N—((S)-1-((3P)-3-(4-chloro-1-methyl-3-(methylsulfonamido)-1H-indazol-7-yl)-4-oxo-7-(pyrimidin-2-ylmethoxy)-3,4-dihydropyrido[2,3-d]pyrimidin-2-yl)-2-(3,5-difluorophenyl)ethyl)-2-((3bS,4aR)-3-(difluoromethyl)-5,5-difluoro-3b,4,4a,5-tetrahydro-1H-cyclopropa[3,4]cyclopenta[1,2-c]pyrazol-1-yl)acetamide [Example 9] |  |  | > 1000 | 0.03
